“Also recorded” adds a separate entry of the source.
Assays:
[1] = 25° C., cited from earlier work; for pKa (COOH): Table 1; for pKa of buffer: neutralisation / catch / wash buffers
[2] = Effect of additives on the thiolation reagent 2-iminothiolane (thiol release, DTNB, A405); conditions: 50 mM additive, pH 8.0, 30 minutes
Procedure: 20 μl of 2 mM 2-iminothiolane was added to each well and mixed quickly and the absorbance values were read at 405 nm every minute for 30 minutes using a Tecan Infinite M200 plate reader with i-Control 1.4 software. […] In control reaction, there is a steady linear increase in absorbance as the reagent is hydrolysed by water. […] The rising baseline can be attributed to the known sensitivity of 2-iminothiolane to hydrolysis at alkaline pH values.

[3] = Lightning-Link fluorescein conjugation of goat anti-rabbit IgG in presence of additive, fluorescence assay; conditions: 50 mM additive; for % of control: conjugate 1/100 dilution, additive-free control 100%
Procedure: Black 96-well plates (Greiner Bio-One (code 655077)) were incubated with 50 ul rabbit IgG (1 ug/well) overnight at 4° C. The plates were blocked with TBS/0.1% BSA for 1 hour at room temperature and washed five times with TBS (wash buffer). Fluorescent antibody conjugates were serially diluted in TBS/0.1% BSA and 50 ul aliquots were added to wells in triplicate. After incubation at room temperature for 1 hour, the plate was washed five times and fluorescence emission was read in using a Tecan Infinite M200 plate reader with i-Control 1.4 software with the appropriate excitation/emission settings (fluorescein, 490 nm/535 nm; phycoeythrin, 535 nm/575 nm. Fluorescence data was plotted as a function of conjugate dilution. To compare results for additives tested in different experiments the data were transformed into a percentage of a control value (i.e. the signal for conjugate prepared in the absence of any test additive).
Reactions were carried out according to the manufacturer's standard protocol except that the additives were included at up to 50 mM concentration in conjugation reactions of Goat-anti-rabbit IgG using fluorescein Lightning-Link kit (product code 707-0010, Innova Biosciences, UK). Conjugates were tested according to the protocol described in Example 2.

[4] = Carbodiimide (EDC)-mediated conjugation of goat anti-rabbit IgG to carboxylated gold nanoparticles in presence of additive, read by lateral flow assay
Procedure: Molecules were tested initially at pH 5 in EDC-mediated reactions with carboxylated gold particles (InnovaCoat GOLD, Innova Biosciences). Potentially interesting molecules from this screening exercise were further evaluated in NHS ester reactions, isothiocyanate reactions and thiolation reactions involving iminothiolane. All of these reactions are widely used in the antibody conjugation field and all would be expected to suffer from interference in the presence of glycine.
Lateral flow test strips (4 mm wide) were prepared from nitrocellulose membrane (Millipore Hi Flow plus 90) striped with goat anti-rabbit IgG (test line) and biotin-BSA (control line). Strips were housed in plastic cartridges and samples of gold conjugate (80 ul) were added to the sample pad. Cartridges were allowed to stand for 30 min and then read using a ESE-Quant GOLD reader—QIAGEN. Each sample was spiked with a fixed amount of streptavidin-gold (Innova biosciences—Product code: 250-0200), which binds to the control line, to check that each test strip had run correctly and that test line data was valid.
10 μg of goat anti-rabbit IgG (GAR) was used per ml of coated 40 nm nanoparticles with carboxyl functionality (InnovaCoat GOLD, Innova Biosciences) at […] in the presence of additives at 50 mM final concentration. Typically reactions were set up with the following additions: 40 μl of 40 nm InnovaCoat (carboxylated) gold nanopartcles, were incubated 5 minutes with 4 μl 0.1 mg/ml GAR, 20 μl water, and 80 μl of 100 mM MES buffer containing 100 mM of additive, pH 5.0. Next, 16 μl of 1 mM EDC was added and after 10 min incubation at 22° C., 20 μl of 10×TBS/1% Tween20 and 20 μl of water was added to give 2 OD conjugate.
Gold conjugates were mixed when required with rabbit IgG ((final concentration 50 ng/ml) at 22° C. Conjugates were 0.2 OD final concentration (i.e. 1/10 dilution from stock conjugates). Samples were run in triplicate on lateral flow test strips as described in Example 1.

[5] = Degree of ionisation of the acid group at pH 5 (Henderson-Hasselbach); format: physicochemical
[6] = additive 50 mM final, MES pH 5.0, EDC, lateral flow test line signal

Compound	pKa (COOH) [1]	% of Signal [4, 6]	interference in carbodiimide-mediated antibody-gold nanoparticle conjugation reaction ([4]; pH 5, EDC)	also measured
C[N+](C)(C)CC(=O)[O-] [Glycine betaine, N,N,N-trimethylglycine]	pKa = 1.83	96%	little or no effect	pKa of the carboxyl (acid) group [1]: 1.8; release of thiols from 2-iminothiolane versus control ([2]; listed as betaine): no increase in this rate; release of thiols from 2-iminothiolane versus control ([2]; listed as glycine betaine): without effect; interference in Lightning-Link fluorescein conjugation reaction [3]: little or no effect; % of control [3]: 98%
CCC(N)C(=O)O (racemic) [DL-2 Aminobutyric Acid]	pKa = 2.29	101%		pKa of the carboxyl (acid) group [1]: 2.29; interference in carbodiimide-mediated antibody-gold nanoparticle conjugation reaction ([4]; pH 5, EDC, listed as DL-2-aminobutyric acid): little or no effect; interference in carbodiimide-mediated antibody-gold nanoparticle conjugation reaction ([4]; pH 5, EDC, listed as DL-2 amino butyric acid): no interference
Phosphate			caused interference	
O=C(O)c1c(O)cc(O)cc1O [2,4,6-Trihydroxy-benzoic Acid, 2,4,6-trihydroxybenzoic acid]	pKa1 = 1.68	0%	severe interference	
O=C(O)C(Cl)(Cl)Cl [TCA, trichloroacetic acid]		0%	severe interference	acid groups ionised (COO−) [5]: essentially fully ionised
O=C(O)c1ccccn1 [2-Picolinic Acid, 2-pyridinecarboxylic acid]	pKa1 = 5.52	100%		pKa of the amine group [1]: 5.52; interference in Lightning-Link fluorescein conjugation reaction [3]: modest interference; % of control [3]: 83%; interference in carbodiimide-mediated antibody-gold nanoparticle conjugation reaction ([4]; pH 5, EDC, listed as 2-picolinic acid): little or no effect; interference in carbodiimide-mediated antibody-gold nanoparticle conjugation reaction ([4]; pH 5, EDC, listed as picolinic acid): without effect
CC(=O)O [acetic acid]			greater interference in carbodiimide reactions than glycine	
NCCC(=O)O [Beta-Alanine]	pKa = 3.6	92%	little or no effect	
CC(=O)[O-].[Na+] [Na Acetate, sodium acetate]				% of Signal ([4]; pH 5): 37%; interference in carbodiimide-mediated antibody-gold nanoparticle conjugation reaction ([4]; pH 5): significant interference but not totally abolishing the conjugation reaction
NCCCC(=O)O [GABA (Υ-Aminobutyric Acid), gamma-amino butyric acid]	pKa1 = 4.23	26%	significant interference; also recorded: significantly inhibits	acid groups ionised (COO−) [5]: 85.5%
[N-]=[N+]=[N-].[Na+] [0.01% NaN3, sodium azide]	pKa1 = 4.8	26%	caused interference	
O=S(=O)(O)CCCCN1CCN(CCO)CC1 [HEPBS, N-(2-Hydroxyethyl)piperazine-N′-(4-butanesulfonic acid)]				pKa of buffer [1]: 8.3
O=C(O)c1cccnc1 [Nicotinic Acid]	pKa1 = 2.201	73%	significant interference; also recorded: partial interference	pKa of the carboxyl (acid) group [1]: 2.2
O=C(O)C1CCCCC1 [Cyclohexane-carboxylic acid, cyclohexane carboxylic acid]		71%	significant interference but not totally abolishing the conjugation reaction	
O=C(O)[C@@H]1CCCN1 [Proline]		94%	little or no effect	interference in Lightning-Link fluorescein conjugation reaction [3]: significant interference; % of control [3]: 53%
CNCC(=O)O [N-Methylglycine (Sarcosine), N-methylglycine]	pKa1 = 2.36	93%	little or no effect	
CC(C)(C)C(=O)O [Pivalic Acid]		53%	significant interference but not totally abolishing the conjugation reaction; also recorded: partial inhibition	acid groups ionised (COO−) [5]: ~50%
O=C(O)CCC(=O)O [Succinic Acid]		0%	severe interference	
C[C@H](N)C(=O)O [Alanine]		100%	little or no effect	
Citric Acid		0%	severe interference	release of thiols from 2-iminothiolane versus control ([2]; listed as Citric acid): no effect; release of thiols from 2-iminothiolane versus control ([2]; listed as citric acid): no increase in this rate
CN(C)CC(=O)O [N,N- Dimethylglycine, N,N-dimethylglycine]	pKa1 = 2.06	110%	little or no effect	interference in Lightning-Link fluorescein conjugation reaction [3]: little or no effect; % of control [3]: 96%
NC(CO)(CO)CO [Tris]	pKa1 = 8.07	19%	severe interference	
O=S(=O)(O)CCN1CCN(CCS(=O)(=O)O)CC1 [PIPES, piperazine-N,N′-bis(2-ethanesulfonic acid)]				pKa of buffer [1]: 6.76

Source: US11046753B2, “Antibody composition and buffer system therefor” (INNOVA BIOSCIENCES LTD, priority 2013, dated 2021)
